Experimental findings from patent publication US7045138B2, “Composition for mitigation of insects and/or mollusca” (American Natural Technology Sciences, Inc., priority 2000, dated 2006) are described below.

This experiment relates to Fire Ants. The experiment is described as follows: Fire ant mound field tests of bait/borate formulations. The experiment is classed as in vivo, Solenopsis invicta. As for the experimental part:
The following components were tested either alone or in combinations for their ability to attract Fire Ants: • 1. Cow manure dropping in an infested area; • 2. Pelletized cow manure; • 3. Milk; • 4. Powdered, fresh and pelletized whey; • 5. Sugar solutions of varying concentrations; • 6. Raw fruit and vegetables of various kinds and concentrates; • 7. Various soft drinks containing sugar; • 8. Bacon and other raw meats; • 9. Vegetable and animal oils, both in liquid or solid; • 10. Dog and cat foods in bags, cans, or packaged in some other manner; • 11. Corn or other vegetable products in the form of meal, syrup, cracked, particles and flakes and other particles; • 12. Wheat and rice as bleached and unbleached, flower or granules; • 13. Millet seeds whole and crushed; • 14. Sunflower seeds whole, crushed and with various vegetable oils added; • 15. Microcapsules of whey and other materials, made to hold various, foods, etc.; and • 16. Capsules made of various vegetable water, sugar, starches, proteins, etc. that contain the bait and/or borates and/or DE.
Mounds were selected of varying sizes measured in diameter: • 1. Small mound (1 inch to 6 inches) • 2. Medium mound (6 inches to 3.0 feet) • 3. Large mound (3.0 feet and larger) • 4. Control
When possible, isolated mounds were selected.
The formulations were tested individually at different sites: • 1. Standard was one level teaspoon for a small mound, two for a medium mound and three or more for a large mound; and • 2. Volume vs. weight was noted.
The following data was collected for each site: • 1. Location • 2. Data and time of application • 3. Observation are conducted at: • a. One hour; • b. Four hours; • c. Twelve hours; • d. One day; • e. Two days; • f. Four days; • g. Eight days; • h. Sixteen days; and • i. Intermittent observations based upon climatic conditions. • 4. Weather data collected include: • a. Temperature; • b. Humidity; • c. Rainfall (time of day and extent); and • d. Wind speed and direction • 5. General observations
The time of application is preferably near evening (5 p.m. or later) or early morning (5 a.m. to 9 a.m.).

Disodium octoborate tetrahydrate [DOT]: the degree of control result (DOT combined with whey bait) is reported as “high degree of control”. Moreover, the “acceptance by the Fire Ants” value (incorporated with the baits tested) is “readily accepted”. For the setting “preliminary data”, the “acceptable formulation level for control into the second generation” value is reported as around 1.0% and the “acceptable formulation level for first generation control” value was ~0.05 % of the formulation.

On to calcium borate, for which the performance result (5% substituted for the DOT, with whey) is “superior performance”.
